# Like-named read-outs stand apart in the source and are kept apart here.
# How the values were obtained:
# Type in all cases: cell-based
# hTLR7 = biological target: T1, hTLR7 (Homo sapiens, UniProt Q9NYK1); assay: Reporter Gene Assay (RGA), HEK-Blue hTLR7 reporter cells, SEAP readout; details: overnight incubation, SEAP absorbance 620 nm
# T1 construct: host or cells: HEK-Blue hTLR7 reporter cells (HEK293-derived, own knowledge)
# T1 sequence (Q9NYK1 27-1049): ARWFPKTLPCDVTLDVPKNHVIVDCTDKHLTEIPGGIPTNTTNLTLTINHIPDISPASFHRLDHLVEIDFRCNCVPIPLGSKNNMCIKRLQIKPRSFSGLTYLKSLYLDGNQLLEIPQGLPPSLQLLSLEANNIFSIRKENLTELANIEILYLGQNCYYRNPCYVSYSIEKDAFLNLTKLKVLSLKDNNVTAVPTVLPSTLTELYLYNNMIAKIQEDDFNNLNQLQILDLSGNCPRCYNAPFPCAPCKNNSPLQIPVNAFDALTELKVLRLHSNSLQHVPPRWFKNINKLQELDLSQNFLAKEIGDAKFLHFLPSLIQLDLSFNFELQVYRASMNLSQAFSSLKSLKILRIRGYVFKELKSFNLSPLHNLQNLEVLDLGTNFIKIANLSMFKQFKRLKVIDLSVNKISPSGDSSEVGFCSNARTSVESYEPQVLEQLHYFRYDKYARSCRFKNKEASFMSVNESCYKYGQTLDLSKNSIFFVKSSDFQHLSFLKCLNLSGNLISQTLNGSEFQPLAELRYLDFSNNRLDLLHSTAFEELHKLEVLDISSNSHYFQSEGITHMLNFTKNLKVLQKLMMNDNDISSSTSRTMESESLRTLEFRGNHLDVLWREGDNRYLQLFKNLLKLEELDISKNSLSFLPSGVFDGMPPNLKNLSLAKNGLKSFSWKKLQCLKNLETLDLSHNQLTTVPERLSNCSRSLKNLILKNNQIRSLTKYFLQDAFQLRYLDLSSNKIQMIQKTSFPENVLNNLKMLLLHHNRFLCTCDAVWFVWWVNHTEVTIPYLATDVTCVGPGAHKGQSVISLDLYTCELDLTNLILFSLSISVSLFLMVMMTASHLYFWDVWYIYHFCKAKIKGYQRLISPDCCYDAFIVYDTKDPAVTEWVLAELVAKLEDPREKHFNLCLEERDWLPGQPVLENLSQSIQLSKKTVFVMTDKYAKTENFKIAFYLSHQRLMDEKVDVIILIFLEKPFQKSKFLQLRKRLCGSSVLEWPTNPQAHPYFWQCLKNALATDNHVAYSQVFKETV
# Outline: (§1)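 HEK-Blue reporter cells expressing human or mouse TLR7 (1.5×10^4 cells) were treated with an 11-point, 4-fold compound titration from 15 pM in HEK-Blue Detection medium. Incubation was overnight at 37° C with 5% CO2. Secreted embryonic alkaline phosphatase was read as absorbance at 620 nm.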
# Mouse splenocytes = assay: Mouse Splenocyte Assay, cytokine release (HTRF); details: 24 hours, mIL6 in supernatant; for EC50: Splenocyte, read-out: Splenocyte IL6 EC50
# Outline: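 Splenocytes from female balb/c nude mice, thawed, 100,000 per well in RPMI + 10% FBS. Exposed for 24 h at 37 °C to a 4-fold 11-point compound titration from 15 μM; supernatant mIL6 and mTNFα measured by HTRF.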
# mTLR7 = biological target: T2, mTLR7 (Mus musculus, UniProt P58681); assay: Reporter Gene Assay (RGA), HEK-Blue mTLR7 reporter cells, SEAP readout; details: overnight incubation, SEAP absorbance 620 nm
# T2 construct: host or cells: HEK-Blue mTLR7 reporter cells (HEK293-derived, own knowledge)
# T2 sequence (P58681 27-1050): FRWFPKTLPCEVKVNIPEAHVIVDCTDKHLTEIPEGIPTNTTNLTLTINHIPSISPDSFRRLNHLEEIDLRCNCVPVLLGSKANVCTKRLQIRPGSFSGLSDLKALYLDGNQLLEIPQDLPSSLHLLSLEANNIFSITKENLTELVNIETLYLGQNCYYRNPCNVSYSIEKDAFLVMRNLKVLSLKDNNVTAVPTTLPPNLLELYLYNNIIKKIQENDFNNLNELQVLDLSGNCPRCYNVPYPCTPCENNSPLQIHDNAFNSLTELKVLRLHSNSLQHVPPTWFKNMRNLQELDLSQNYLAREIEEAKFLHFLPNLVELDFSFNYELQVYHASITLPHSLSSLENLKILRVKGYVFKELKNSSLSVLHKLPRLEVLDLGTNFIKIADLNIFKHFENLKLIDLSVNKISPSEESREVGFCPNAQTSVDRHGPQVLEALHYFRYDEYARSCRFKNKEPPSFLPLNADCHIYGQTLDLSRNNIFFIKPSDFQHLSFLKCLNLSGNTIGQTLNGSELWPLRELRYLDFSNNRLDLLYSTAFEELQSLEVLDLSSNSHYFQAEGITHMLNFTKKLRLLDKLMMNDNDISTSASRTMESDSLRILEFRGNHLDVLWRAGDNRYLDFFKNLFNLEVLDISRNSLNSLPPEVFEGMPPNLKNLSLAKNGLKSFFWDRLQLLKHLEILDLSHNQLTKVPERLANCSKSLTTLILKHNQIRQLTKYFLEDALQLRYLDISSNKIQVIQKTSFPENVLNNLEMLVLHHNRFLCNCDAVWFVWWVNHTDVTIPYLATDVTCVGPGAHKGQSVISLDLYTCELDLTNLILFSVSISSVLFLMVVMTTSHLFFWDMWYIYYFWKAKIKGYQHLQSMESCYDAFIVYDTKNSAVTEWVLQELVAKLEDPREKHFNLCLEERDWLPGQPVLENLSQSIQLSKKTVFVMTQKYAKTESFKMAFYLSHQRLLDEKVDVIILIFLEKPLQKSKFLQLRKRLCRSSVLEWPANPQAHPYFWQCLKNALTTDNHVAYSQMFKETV
# Outline: as §1
# [1] = tested on: Human peripheral blood mononuclear cells (PBMCs); assay: Human PBMC Assay, cytokine release (HTRF); details: PBMC, 24 hours
# Outline: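 Cryopreserved human PBMCs, rested overnight with 10 ng/ml hIL3, then 300,000 cells/well treated 24 h at 37° C with compound (4-fold, 11-point titration from 15 μM) in RPMI+10% FBS. Supernatant hIL6, hTNFα and hIFNα measured by HTRF; growth medium as negative control.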
# [2] = hIFNα in supernatant, EC50 values approximated and divided into groups, read-out: PBMC IFNa EC50
# [3] = hIL6 in supernatant, read-out: PBMC IL6 EC50
Structure (SMILES),EC50 (hTLR7),EC50 (Mouse splenocytes),EC50 (mTLR7),Splenocyte IL6 EC50 (nM) (Mouse splenocytes),"EC50 [1, 2]","EC50 [1, 3]"
"CCCN(CCC)Cc1ccc(CNCc2ccc(Cn3c(O)nc4c(N)nc(OCC)nc43)c(OC)c2)cc1 [Compound 141, 6-amino-9-(4-(((4-((dipropylamino)methyl)benzyl)amino)methyl)-2-methoxy-benzyl)-2-ethoxy-9H-purin-8-ol]",0.1 nM,1.3 nM,1 nM,,< 0.1 nM,9290 nM
"CCOc1nc(N)c2nc(O)n(Cc3ccc(CNCc4ccc(CN5CCOCC5)cc4)cc3OC)c2n1 [Compound 142, 6-amino-2-ethoxy-9-(2-methoxy-4-(((4-(morpholinomethyl)benzyl)amino)-methyl)benzyl)-9H-purin-8-ol]",2.6 nM,9.9 nM,14.6 nM,,< 0.1 nM,13.6 nM
"CCOc1nc(N)c2nc(O)n(Cc3ccc(CNCc4ccc(CN5CCC(NC(=O)OC(C)(C)C)CC5)cc4)cc3OC)c2n1 [Compound 143, tert-butyl-(1-(4-(((4-((6-amino-2-ethoxy-8-hydroxy-9H-purin-9-yl)methyl)-3-methoxybenzyl)amino)methyl)benzyl)piperidin-4-yl)carbamate]",0.2 nM,9.6 nM,15.1 nM,,< 0.1 nM,27.1 nM
"CCOc1nc(N)c2nc(O)n(Cc3ccc(CNCc4ccc(CN5CCC(N)CC5)cc4)cc3OC)c2n1 [Compound 144, 6-amino-9-(4-(((4-((4-aminopiperidin-1-yl)methyl)benzyl)amino)methyl)-2-methoxybenzyl)-2-ethoxy-9H-purin-8-ol]",79.5 nM,372 nM,1330 nM,,> 10 nM,191 nM
"CCOc1nc(N)c2nc(O)n(Cc3ccc(CNCc4ccc(CN5CCNCC5)cc4)cc3OC)c2n1 [Compound 145, 6-amino-2-ethoxy-9-(2-methoxy-4-(((4-(piperazin-1-ylmethyl)benzyl)amino)-methyl)benzyl)-9H-purin-8-ol]",69 nM,338 nM,142 nM,,,126 nM
"CCCCOc1nc(N)c2nc(O)n(Cc3ccc(CN4CCNCC4)cc3OC)c2n1 [Compound 154, 6-amino-2-butoxy-9-(2-methoxy-4-(piperazin-1-ylmethyl)benzyl)-9H-purin-8-ol]",0.2 nM,217 nM,2.9 nM,,> 10 nM,1970 nM
"CCCCOc1nc(N)c2nc(O)n(Cc3ccc(CN4CCC(N)CC4)cc3OC)c2n1 [Compound 155, 6-amino-9-(4-((4-aminopiperidin-1-yl)methyl)-2-methoxybenzyl)-2-butoxy-9H-purin-8-ol]",0.2 nM,148 nM,9.2 nM,,> 10 nM,878 nM
"CCCCOc1nc(N)c2nc(O)n(Cc3ccc(CN4CCC(CN)CC4)cc3OC)c2n1 [Compound 156, 6-amino-9-(4-((4-(aminomethyl)piperidin-1-yl)methyl)-2-methoxybenzyl)-2-butoxy-9H-purin-8-ol]",0.3 nM,2.5 nM,0.3 nM,,> 10 nM,
"CCCCOc1nc(N)c2nc(O)n(Cc3ccc(CN4CCC5(CCNCC5)CC4)cc3OC)c2n1 [Compound 157, 9-(4-((3,9-diazaspiro[5.5]undecan-3-yl)methyl)-2-methoxybenzyl)-6-amino-2-butoxy-9H-purin-8-ol]",0.9 nM,9.4 nM,3.7 nM,,> 10 nM,473 nM

# Second part, led by results:
EC50 (hTLR7),EC50 (Mouse splenocytes),EC50 (mTLR7),Splenocyte IL6 EC50 (nM) (Mouse splenocytes),Structure (SMILES),"EC50 [1, 2]","EC50 [1, 3]"
5.8 nM,12.9 nM,28.7 nM,,"CCOc1nc(N)c2nc(O)n(Cc3ccc(CNCc4ccc(CNCc5ccc(CN)cc5)cc4)cc3OC)c2n1 [Compound 146, 6-amino-9-(4-(((4-(((4-(aminomethyl)benzyl)amino)methyl)benzyl)amino)-methyl)-2-methoxybenzyl)-2-ethoxy-9H-purin-8-ol]",< 0.1 nM,16.7 nM
0.9 nM,13.2 nM,16.9 nM,,"CCOc1nc(N)c2nc(O)n(Cc3ccc(CNCc4ccc(CNCc5ccccc5)cc4)cc3OC)c2n1 [Compound 147, 6-amino-9-(4-(((4-((benzylamino)methyl)benzyl)amino)methyl)-2-methoxy-benzyl)-2-ethoxy-9H-purin-8-ol]",< 0.1 nM,38.8 nM
6.9 nM,2130 nM,83.8 nM,,"CCOc1nc(N)c2nc(O)n(Cc3ccc(CN4CCNCC4)cc3)c2n1 [Compound 150, 6-amino-2-ethoxy-9-(4-(piperazin-1-ylmethyl)benzyl)-9H-purin-8-ol]",0.1 to 1 nM,322 nM
12.1 nM,68.8 nM,125 nM,,"CCOc1nc(N)c2nc(O)n(Cc3ccc(CNCc4ccc(CN(CC(=O)O)CC(=O)O)cc4)cc3OC)c2n1 [Compound 151, 2,2′-((4-(((4-((6-amino-2-ethoxy-8-hydroxy-9H-purin-9-yl)methyl)-3-methoxy-benzyl)amino)methyl)benzyl)azanediyl)diacetic Acid]",> 10 nM,59.2 nM
1.3 nM,,31.7 nM,inactive,"CCOc1nc(N)c2nc(O)n(Cc3ccc(CN4CCNCC4)cc3F)c2n1 [Compound 152, 6-amino-2-ethoxy-9-(2-fluoro-4-(piperazin-1-ylmethyl)benzyl)-9H-purin-8-ol]",0.1 to 1 nM,17 nM
6.1 nM,,263 nM,inactive,"CCOc1nc(N)c2nc(O)n(Cc3ccc(CN4CCC(N)CC4)cc3F)c2n1 [Compound 153, 6-amino-9-(4-((4-aminopiperidin-1-yl)methyl)-2-fluorobenzyl)-2-ethoxy-9H-purin-8-ol]",> 10 nM,39 nM

# Source: US20250170266A1 (ZYMEWORKS BC INC., priority 2022, published 2025)
